Assay [1] addresses T1, AbHBDH (Acinetobacter baumannii, UniProt A0A1E3M3N6).
T1 construct: gene AUO97_16470; homotetramer; landmarks: Gln95, Ser143, Asn145, Gly149, Phe150, Gly152, Lys153, Tyr156, Val189, Gln197
T1 sequence (A0A1E3M3N6 1-261): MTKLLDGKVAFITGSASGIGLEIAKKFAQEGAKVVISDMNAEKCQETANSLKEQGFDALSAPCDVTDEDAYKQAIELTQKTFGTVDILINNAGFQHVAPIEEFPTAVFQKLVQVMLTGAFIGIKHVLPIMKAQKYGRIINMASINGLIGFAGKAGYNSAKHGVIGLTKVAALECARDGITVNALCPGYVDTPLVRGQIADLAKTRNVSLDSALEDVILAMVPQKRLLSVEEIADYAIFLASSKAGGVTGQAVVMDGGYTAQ
The assay is described as follows: X-ray crystal structure, […] Å. The format is binding.

Assay [2] deals with T2, PaHBDH (Psychrobacter arcticus, UniProt Q4FRT2).
T2 construct: gene Psyc_1428; homotetramer; landmarks: Gln99, Ser148, His150, Lys158, Tyr161, Val194, Gln202
T2 sequence (Q4FRT2 entry or part of it): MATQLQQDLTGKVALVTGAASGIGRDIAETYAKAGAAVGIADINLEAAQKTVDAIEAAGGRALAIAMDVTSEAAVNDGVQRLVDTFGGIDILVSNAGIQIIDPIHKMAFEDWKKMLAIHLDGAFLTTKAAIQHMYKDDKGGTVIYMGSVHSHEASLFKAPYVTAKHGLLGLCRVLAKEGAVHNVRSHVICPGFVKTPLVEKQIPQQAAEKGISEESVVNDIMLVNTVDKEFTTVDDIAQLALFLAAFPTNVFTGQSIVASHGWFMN
The assay is described as follows: X-ray crystal structure, […] Å. Format: binding. As to conditions: ternary dead-end complex with NAD+.

The target in assay [3] is T2, PaHBDH. The assay is described as follows: NADH fluorescence titration with enzyme. As to conditions: 100 mM HEPES, pH 7.0, 25 °C; 3 μM NADH. The format is binding.
The target in assay [4] is T1, AbHBDH. The experiment in a line: isothermal titration calorimetry. Format: binding. As to conditions: 100 mM HEPES, pH 7.0, 25 °C; single-site model.
In assay [5] the target is T2, PaHBDH. The assay is described as follows: X-ray crystal structure, […] Å. Format: binding.
In assay [6] the target is (R)-3-hydroxybutyrate dehydrogenase from Acinetobacter baumannii (Acinetobacter baumannii). The experiment in a line: crystal structure; ternary complexes with NAD+ and acetoacetate or 3-oxovalerate; tetramers formed with crystallographic symmetry; crystals grown at room temperature.
The target is the same in assay [7]. The experiment in a line: SEC; analytical gel filtration, Superdex 200 10/300 GL, room temperature, samples loaded at 1 mg/mL, 20 mM HEPES pH 8.0, MW standards.
The target in assay [8] is (R)-3-hydroxybutyrate dehydrogenase from Psychrobacter arcticus (Psychrobacter arcticus). The assay is described as follows: crystal structure; ternary complexes with NAD+ and acetoacetate or 3-oxovalerate; tetramers formed with crystallographic symmetry; crystals grown at room temperature.
Assay [9] has the same target. The assay is described as follows: SEC; analytical gel filtration, Superdex 200 10/300 GL, room temperature, samples loaded at 1 mg/mL, 20 mM HEPES pH 8.0, MW standards.
Setting [10] is: ternary dead-end complex with NAD+.
Setting [11] is: ternary dead-end complex with acetoacetate (also with 3-oxovalerate).

Turning to `CCC(=O)CC(=O)O` [3-oxovalerate], the “X-ray crystal structure, 1.9 Å” value in [1] (setting [10]) was “Fobs – Fcalc maps show clear density for NAD^+ and either acetoacetate or 3-oxovalerate”. Also, the “X-ray crystal structure, 1.84 Å” value in assay [2] was “Fobs – Fcalc maps show clear density for NAD^+ and either acetoacetate or 3-oxovalerate”.
Take `NC(=O)C1=CN([C@@H]2O[C@H](COP(=O)(O)OP(=O)(O)OC[C@H]3O[C@@H](n4cnc5c(N)ncnc54)[C@H](O)[C@@H]3O)[C@@H](O)[C@H]2O)C=CC1` [NADH]: the Kd came out at 7 ± 2 µM in [3] and 14 ± 8 µM in assay [4].
Take `NC(=O)c1ccc[n+]([C@@H]2O[C@H](COP(=O)(O)OP(=O)(O)OC[C@H]3O[C@@H](n4cnc5c(N)ncnc54)[C@H](O)[C@@H]3O)[C@@H](O)[C@H]2O)c1` [NAD^+]: in [1] (setting [11]), the “X-ray crystal structure, 1.9 Å” value is “crystal structures of the ternary complexes PaHBDH:NAD^+:AcAc, AbHBDH:NAD^+:AcAc”. Moreover, in assay [5] (setting [11]), the “X-ray crystal structure, 1.3 Å” value was “crystal structures of the ternary complexes PaHBDH:NAD^+:AcAc, AbHBDH:NAD^+:AcAc”.
Turning to `CC(=O)CC(=O)O` [acetoacetate], the “X-ray crystal structure, 1.9 Å” value in [1] (setting [10]) is “crystal structures of the ternary complexes PaHBDH:NAD^+:AcAc, AbHBDH:NAD^+:AcAc”. The “X-ray crystal structure, 1.3 Å” value in assay [5] (ternary dead-end complex with NAD+, two conformations of acetoacetate) is given as “crystal structures of the ternary complexes PaHBDH:NAD^+:AcAc, AbHBDH:NAD^+:AcAc”.
In the case of “(R)-3-hydroxybutyrate dehydrogenase from Acinetobacter baumannii (enzyme)”, the stoichiometry N in [6] and in assay [7] was 4 in each case.
Take “(R)-3-hydroxybutyrate dehydrogenase from Psychrobacter arcticus (enzyme)”: the stoichiometry N in assay [8] and in [9] was 4 throughout.
